This is an account of results in patent US20050282833A1, “Pharmacological treatment of psoriasis” (priority 2002, published 2005).

Series [1] has as its system patient with a history of plaque psoriasis. Description: Case study 1: valacyclovir treatment of a plaque psoriasis patient. It is filed as in vivo, human. The method, then:
A patient with a history of plaque psoriasis over the last several years was diagnosed by their physician. Patient was treated with valacyclovir tablets at 500 mg taken 2 times a day for 20 days.

Series [2] concerns patient with a history of reoccurring plaque psoriasis. As to the kind of experiment: Case study 2: Valtrex (valacyclovir) treatment of a plaque psoriasis patient. In kind it is in vivo, human. The conditions noted are these: tablets 500 mg 3 times a day for several weeks, then 1.0 gram 3 times a day for several weeks; person. The method, then: A person with a history of reoccurring plaque psoriasis over the last 30 years, as diagnosed by their physician, began treatment with […] (valacyclovir) tablets at 500 mg taken 3 times a day for several weeks. Dosage of […] increased to 1.0 gram taken 3 times a day for several weeks. Both the psoriatic lesions and other symptoms associated with psoriasis improved and cleared to 75-80% recovery.

The test system of series [3] is patients with psoriatic lesions / psoriatic arthritis. The conditions noted are these: cited from earlier work.
The next series has as its system cytomegalovirus (CMV). The conditions noted are these: ranking among herpes viruses; cited from earlier work.
In series [4] the test system is human herpesvirus (HHV-6). The conditions noted are these: ranking among herpes viruses; cited from earlier work.
Series [5] relates to patients with psoriasis. The conditions noted are these: 10 week trial, cited from earlier work.
Series [6] concerns patients with psoriasis. The conditions noted are these: cited from earlier work.
The subject of a further series is pustular psoriasis. The conditions noted are these: in vivo; cited from earlier work.
For series [7], the system named is psoriatic lesions of patients. The conditions noted are these: once daily over 24 days; cited from earlier work.
The subject of series [8] is patients with plaque psoriasis. The conditions noted are these: after 8 weeks of therapy; cited from earlier work.

As to `CC(C)[C@H](N)C(=O)OCCOCn1cnc2c(=O)[nH]c(N)nc21` [valacyclovir], the “reoccurrence of the psoriatic symptoms” value in [1] (since treatment ended) is on record as “No reoccurrence”. Moreover, the “recovery from the psoriasis” value in [1] (tablets 500 mg 2 times a day for 20 days, person, plaque psoriasis) was “complete recovery”. Further, the “recovery (psoriatic lesions and other symptoms improved and cleared)” value in series [2] is on record as 75-80%.

For etanercept, the “mean improvement of psoriatic lesions” value in [3] (12 weeks) is reported as 46%. In addition, the “response to treatment in patients diagnosed with psoriatic arthritis” value in [3] (psoriatic arthritis) is given as 73%.

Consider `Nc1nc2c(ncn2COCCO)c(=O)[nH]1` [acyclovir], for which the activity against virus entry (with cytomegalovirus (CMV); in [4]) was “least active” throughout. Consider hu1124: anti-CD11a-antibody, for which the “patients with headaches, chills, and fever” value in the series with patients with psoriasis [5] was “over half of the patients”. Moreover, the improvement of psoriasis entry in the series on patients with psoriasis [5] (high dose group) is “only moderate improvement”. Regarding basiliximab, the “long-lasting clearing of lesions after last treatment” value with patients with psoriasis [6] (one patient with acute exacerbating psoriasis) was “more than 10 weeks”. Further, the improvement of lesions result in the series with patients with psoriasis [6] (second patient with stable chronic plaque psoriasis) was “did not show improvement”. Regarding “infliximab: monoclonal antibody directed against TNF-α”, in the series with pustular psoriasis, the “treating and sustaining clearing of pustular psoriasis” value is on record as “highly effective”.

B1: IL-10: cytokine, inhibitor of Th1-type cell priming and Th2-type mediator (protein, UniProt P22301 19-178, looked up)
Interleukin-10: SPGQGTQSENSCTHFPGNLPNMLRDLRDAFSRVKTFFQMKDQLDNLLLKESLLEDFKGYLGCQALSEMIQFYLEEVMPQAENQDPDIKAHVNSLGENLKTLRLRLRRCHRFLPCENKSKAVEQVKNAFNKLQEKGIYKAMSEFDIFINYIEAYMTMKIRN
Regarding B1, in series [7], the “improvement to psoriatic lesions” value was “some improvement”.

B2: daclizumab: monoclonal antibody masking the cellular receptor CD25 for IL-2 (antibody, chains of the INN, looked up, V domains shown)
VH: QVQLVQSGAEVKKPGSSVKVSCKASGYTFTSYRMHWVRQAPGQGLEWIGYINPSTGYTEYNQKFKDKATITADESTNTAYMELSSLRSEDTAVYYCARGGGVFDYWGQGTLVTVSS
VL: DIQMTQSPSTLSASVGDRVTITCSASSSISYMHWYQQKPGKAPKLLIYTTSNLASGVPARFSGSGSGTEFTLTISSLQPDDFATYYCHQRSTYPLTFGQGTKVEVK
With B2, the “patients experiencing a reduction in severity of plaque psoriasis” value in series [8] was 30%.
